Assay results taken from ChEMBL document CHEMBL3244128, “Aromatic esters of nonquaternary carbon-4 piperidinols as analgesics” (J Med Chem, 1978).
Activity calls are given as the source filed them. The rule behind the calls is not given here.

Tests used:
Mus musculus [1] = test: Analgesic activity in sc dosed mouse by hot-plate method; type: functional
Mus musculus [2] = test: Toxicity in mouse at 1.56 to 25 mg/kg, sc; type: organism-based; set-up: dose 1.56-25 mg/kg, route subcutaneous; settings: in vivo
Mus musculus [3] = test: Toxicity in mouse at 54.5 mg/kg, sc; type: organism-based; set-up: dose 54.5 mg/kg, route subcutaneous; settings: in vivo
Mus musculus [4] = test: Analgesic activity in sc dosed mouse by Nilsen method; type: functional
Mus musculus [5] = test: Analgesic activity in mouse at 20 mg/kg, sc by Nilsen method; type: functional, organism-based; set-up: dose 20 mg/kg
Mus musculus [6] = test: Toxicity in mouse at 20 mg/kg, sc; type: organism-based; set-up: dose 20 mg/kg, route subcutaneous; settings: in vivo
Mus musculus [7] = test: Analgesic activity in mouse at 20 mg/kg, sc by hot-plate method; type: functional, organism-based; set-up: dose 20 mg/kg
[8] = target: Opioid receptor (Rattus norvegicus) (UniProt P33533+P34975+P33535); test: Displacement of [3H]dihydromorphine from opiate receptor in rat brain homogenates; type: tissue-based
Mus musculus [9] = test: Toxicity in mouse at 1.25 to 20 mg/kg, sc; type: organism-based; set-up: dose 1.25-20 mg/kg, route subcutaneous; settings: in vivo
Mus musculus [10] = test: Toxicity in mouse at 5 to 40 mg/kg, sc; type: organism-based; set-up: dose 5-40 mg/kg, route subcutaneous; settings: in vivo
Rhesus monkey [11] = test: Toxicity in monkey assessed as morphine-like physical dependence liability at 2 to 4 mg/kg; type: organism-based, Macaca mulatta; set-up: dose 2-4 mg/kg; settings: in vivo
Rhesus monkey [12] = test: Toxicity in nonwithdrawn monkey assessed as nausea at 4 mg/kg; type: organism-based, Macaca mulatta; set-up: dose 4 mg/kg; settings: in vivo
Rhesus monkey [13] = test: Toxicity in nonwithdrawn monkey assessed as nausea and piloerection at 8 mg/kg; type: organism-based, Macaca mulatta; set-up: dose 8 mg/kg; settings: in vivo
Rhesus monkey [14] = test: Toxicity in nonwithdrawn monkey assessed as precipitation of abstinence sign at 8 mg/kg; type: organism-based, Macaca mulatta; set-up: dose 8 mg/kg; settings: in vivo
Rhesus monkey [15] = test: Toxicity in nonwithdrawn monkey assessed as convulsion at 16 mg/kg up to 5 mins; type: organism-based, Macaca mulatta; set-up: dose 16 mg/kg; settings: in vivo
Rhesus monkey [16] = test: Toxicity in nonwithdrawn monkey assessed as retching, vomiting and preconvulsive appearance at 16 mg/kg up to 5 mins; type: organism-based, Macaca mulatta; set-up: dose 16 mg/kg; settings: in vivo
Mus musculus [17] = test: Analgesic activity in mouse at 50 mg/kg, sc by hot-plate method; type: functional, organism-based; set-up: dose 50 mg/kg

Chain of Opioid receptor (Rattus norvegicus) (P33533 whole entry, looked up): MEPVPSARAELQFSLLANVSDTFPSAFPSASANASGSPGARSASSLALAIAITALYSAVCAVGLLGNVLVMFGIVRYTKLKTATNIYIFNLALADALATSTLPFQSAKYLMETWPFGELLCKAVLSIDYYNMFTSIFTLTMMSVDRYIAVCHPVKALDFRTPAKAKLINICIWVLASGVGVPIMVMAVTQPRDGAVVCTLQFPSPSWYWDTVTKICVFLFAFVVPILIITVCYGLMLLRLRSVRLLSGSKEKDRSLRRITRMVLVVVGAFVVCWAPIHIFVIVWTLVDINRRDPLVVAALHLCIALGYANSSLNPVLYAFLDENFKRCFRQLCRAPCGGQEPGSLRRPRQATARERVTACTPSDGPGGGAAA
Chain of Opioid receptor (Rattus norvegicus) (P33535 whole entry, looked up): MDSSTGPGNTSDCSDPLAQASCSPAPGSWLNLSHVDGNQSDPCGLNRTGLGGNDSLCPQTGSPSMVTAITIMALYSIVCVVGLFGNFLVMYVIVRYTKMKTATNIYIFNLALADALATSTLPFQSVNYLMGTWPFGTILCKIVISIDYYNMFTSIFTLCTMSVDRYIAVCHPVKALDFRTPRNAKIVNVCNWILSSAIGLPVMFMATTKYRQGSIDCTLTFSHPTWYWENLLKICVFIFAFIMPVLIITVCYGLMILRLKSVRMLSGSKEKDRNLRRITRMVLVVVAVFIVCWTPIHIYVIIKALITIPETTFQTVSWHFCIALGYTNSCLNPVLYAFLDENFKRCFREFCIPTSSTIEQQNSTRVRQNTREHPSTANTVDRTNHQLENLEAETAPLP
Chain of Opioid receptor (Rattus norvegicus) (P34975 whole entry, looked up): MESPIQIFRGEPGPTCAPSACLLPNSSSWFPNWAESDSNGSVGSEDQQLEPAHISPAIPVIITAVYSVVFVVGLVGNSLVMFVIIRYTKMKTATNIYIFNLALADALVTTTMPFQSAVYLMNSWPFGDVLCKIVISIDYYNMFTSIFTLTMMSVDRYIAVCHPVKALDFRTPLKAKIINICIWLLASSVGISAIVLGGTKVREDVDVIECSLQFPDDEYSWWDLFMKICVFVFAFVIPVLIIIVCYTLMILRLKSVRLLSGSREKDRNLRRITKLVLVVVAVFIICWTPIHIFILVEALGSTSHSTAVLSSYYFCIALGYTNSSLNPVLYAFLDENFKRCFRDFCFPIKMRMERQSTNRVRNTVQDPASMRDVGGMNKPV

Row | Structure (SMILES) | ED50 (Mus musculus [1]) | also measured
1 | COc1cccc(C(=O)OC2CCN(C)CC2)c1 | 6.1 mg/kg | Activity (Mus musculus [2]): Non-toxic; Activity (Mus musculus [3]): Non-toxic
2 | CN1CCC(OC(=O)c2cccc(F)c2)CC1 | 15.1 mg/kg | 
3 | COc1cc(C(=O)OC2CCN(C)CC2)ccc1C | 11.9 mg/kg | 
4 | CN1CC[C@]23c4c5ccc(O)c4O[C@H]2[C@@H](O)C=C[C@H]3[C@H]1C5 [MORPHINE] | 1.2 mg/kg | ED50 (Mus musculus [4]): 0.8 mg/kg
5 | Cc1cc(C)cc(C(=O)OC2CCN(C)CC2)c1 | 24.4 mg/kg | 
6 | COc1cc(C(=O)OC2CCN(C)CC2)cc(OC)c1OC | 15.4 mg/kg | 
7 | COc1cc(OC)c(C(=O)OC2CCN(C)CC2)c(OC)c1 | 11.6 mg/kg | 
8 | Cc1ccc(C(=O)OC2CCN(C)CC2)cc1 | 18.2 mg/kg | 
9 | CCOC(=O)[C@@H]1CN(C)CC[C@@H]1OC(=O)c1ccc(OC)c(OC)c1 (relative stereo) | 4 mg/kg | ED50 (Mus musculus [5]): Active; Activity (Mus musculus [6]): Toxic
10 | Cc1ccc(C(=O)OC2CCN(C)CC2)cc1F | 13.9 mg/kg | 
11 | CN1CCC(OC(=O)c2ccccc2Oc2ccccc2)CC1 |  | Analgesic activity (active/inactive) (Mus musculus [7]): Active
12 | COc1ccc2c3c1O[C@H]1[C@@H](O)C=C[C@H]4[C@@H](C2)N(C)CC[C@@]341 [CODEINE] | 7.5 mg/kg | ED50 (Mus musculus [4]): 4.5 mg/kg
13 | COc1cc(OC)cc(C(=O)OC2CCN(C)CC2)c1 | 9.3 mg/kg | 
14 | CN1CCC(OC(=O)c2ccc(F)cc2)CC1 | 11.5 mg/kg | 
15 | COc1ccc(C(=O)O[C@H]2CCN(C)C[C@H]2C)cc1OC (relative stereo) |  | Analgesic activity (active/inactive) (Mus musculus [7]): Active; K [8]: > 100 µM
16 | Cc1cc(C)c(C(=O)OC2CCN(C)CC2)cc1C | 20 mg/kg | 
17 | CCOC(=O)[C@H]1CN(C)CC[C@@H]1OC(=O)c1ccc(OC)c(OC)c1 (relative stereo) | 11.8 mg/kg | 
18 | CN1CCC(OC(=O)/C=C/c2ccccc2)CC1 | 16.2 mg/kg | 
19 | COc1cccc(C(=O)OC2CCN(C)CC2)c1OC | 8.9 mg/kg | ED50 (Mus musculus [4]): 19.6 mg/kg
20 | Cc1cccc(C(=O)OC2CCN(C)CC2)c1 | inactive | 
21 | CC(C(=O)OC1CCN(C)CC1)c1ccccc1 (stereo unspecified) | 25.4 mg/kg | 
22 | COc1ccc(C(=O)OC2CCN(C)CC2)cc1OC | 3.9 mg/kg | ED50 (Mus musculus [4]): 13.1 mg/kg; Activity (Mus musculus [2]): Non-toxic; Activity (Mus musculus [3]): Non-toxic; Activity (Mus musculus [9]): Non-toxic; Activity (Mus musculus [10]): Non-toxic; Activity (Rhesus monkey [11]): Non-toxic; Activity (Rhesus monkey [12]): Toxic; Activity (Rhesus monkey [13]): Toxic; Activity (Rhesus monkey [14]): Non-toxic; Activity (Rhesus monkey [15]): Toxic; Activity (Rhesus monkey [16]): Toxic
23 | Cc1cc(C)c(C(=O)OC2CCN(C)CC2)c(C)c1 | 8.3 mg/kg | ED50 (Mus musculus [4]): 46 mg/kg
24 | COc1ccccc1C(=O)OC1CCN(C)CC1 | 10.6 mg/kg | 

Row | Structure (SMILES) | ED50 (Mus musculus [1]) | also measured
25 | Cc1[nH]c(C)c(C(=O)OC2CCN(C)CC2)c1C | 4.9 mg/kg | ED50 (Mus musculus [4]): 7.1 mg/kg
26 | Cc1ccc(C(=O)OC2CCN(C)CC2)cc1C |  | Analgesic activity (active/inactive) (Mus musculus [7]): Active
27 | CN1CCC(OC(=O)c2cc(I)cc(I)c2I)CC1 | inactive | 
28 | Cc1ccccc1C(=O)OC1CCN(C)CC1 | 8.9 mg/kg | 
29 | COc1ccc(C(=O)OC2CCN(C)CC2)cc1 | 10.5 mg/kg | 
30 | COc1ccc(CCC(=O)OC2CCN(C)CC2)cc1OC | 30.7 mg/kg | ED50 (Mus musculus [4]): 32 mg/kg
31 | CN1CCC(OC(=O)c2cccc(O)c2)CC1 | 16.6 mg/kg | 
32 | CN1CCC(OC(=O)c2ccccc2CCc2ccccc2)CC1 |  | ED50 (Mus musculus [17]): Active
33 | COc1ccc(C(=O)O[C@H]2CCN(C)C[C@@H]2C)cc1OC | 8.3 mg/kg | K [8]: > 100 µM
34 | CN1CCC(OC(=O)C2c3ccccc3-c3ccccc32)CC1 | inactive | 
35 | CN1CCC(OC(=O)C23CC4CC(CC(C4)C2)C3)CC1 | 15.9 mg/kg | 
36 | Cc1ccc(C)c(C(=O)OC2CCN(C)CC2)c1 | 12.5 mg/kg | 
37 | COc1cccc(OC)c1C(=O)OC1CCN(C)CC1 | 73.8 mg/kg | 
38 | CCC(=O)OC1CCN(C)CC1 | 20.2 mg/kg | 
39 | CN1CCC(OC(=O)c2ccc(Cl)c(Cl)c2)CC1 | 27.1 mg/kg | 
40 | Cc1cc(C)c(C(=O)OC2CCN(CCc3ccccc3)CC2)c(C)c1 | 37 mg/kg | 
41 | CN1CCC(OC(=O)c2ccccc2)CC1 | 9.6 mg/kg | 
42 | CN1CCC(OC(=O)c2ccc3c(c2)OCO3)CC1 | 7.3 mg/kg | 
43 | CN1CCC(OC(=O)Cc2ccccc2)CC1 | inactive | 
44 | CN1CCC(OC(=O)c2ccccc2F)CC1 | 10.6 mg/kg | 
45 | CN1CCC(OC(=O)CCCc2ccccc2)CC1 | inactive | 
46 | CN1CCC(OC(=O)c2ccc(C(C)(C)C)cc2)CC1 | 23.3 mg/kg | 
47 | CCOc1ccccc1C(=O)OC1CCN(C)CC1 |  | Analgesic activity (active/inactive) (Mus musculus [7]): Active
48 | Cc1cccc(C)c1C(=O)OC1CCN(C)CC1 | 15.2 mg/kg | 
